The values below come from ChEMBL document CHEMBL1201862, “PubChem BioAssay data set” (2004).

Molecules are shown by their SMILES.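 48-hour exposure; five concentrations; linearly interpolated endpoints. The concentration for 50% growth inhibition is given as GI50.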 Activity calls are given as the source filed them. No stated cut-off is given here; in the data, active = GI50 up to about 1.1 µM and inactive = higher. Where only a bound is given, the exact number is not on record here.

Some test systems named below: A498; A549; ACHN; DU-145; HL-60; Hs-578T; IGROV-1; K562; MCF7; Malme-3M; NCI-H226; NCI-H460; NCI/ADR-RES; OVCAR-8; PC-3; SF-268; SK-OV-3; SNB-19; SR; U-251.
Common to all, as to test: DTP human tumour cell line panel, 48 h

By GI50 is commonly meant the concentration giving 50% growth inhibition. Take `CN(C)c1n/c(=N/Cc2ccccn2)ss1`: the GI50 in the assay with A498 is > 10 µM (inactive); in the assay with A549, > 10 µM (inactive); in the assay with ACHN, > 10 µM (inactive); in the assay on DU-145, > 10 µM (inactive); in the assay with HL-60, 2.18 µM (inactive); in the assay with Hs-578T, > 10 µM (inactive). For the same compound, the GI50 in the assay with IGROV-1 was > 10 µM (inactive); with K562, 2.51 µM (inactive); with MCF7, 0.409 µM (active); in the assay on Malme-3M it was > 4.61 µM (inactive); in the assay with NCI-H226 it was > 10 µM (inactive); in the assay on NCI-H460, > 10 µM (inactive). Moreover, the GI50 with NCI/ADR-RES was > 10 µM (inactive); in the assay on OVCAR-8, > 5.3 µM (inactive); in the assay on PC-3, > 10 µM (inactive); in the assay with SF-268, > 10 µM (inactive); in the assay on SK-OV-3 it was > 10 µM (inactive); in the assay with SNB-19, > 10 µM (inactive). Besides, the GI50 is 1.93 µM (inactive) in the assay on SR and > 10 µM (inactive) with U-251.
Consider `CC(=O)OCc1ccc2oc(=O)c(C(=O)Oc3ccccc3)cc2c1`, for which the GI50 with A498 is > 100 µM (inactive); with A549 it was > 100 µM (inactive); with ACHN, 91.6 µM (inactive); in the assay with DU-145, > 100 µM (inactive); in the assay with HL-60, 52.1 µM (inactive); in the assay on Hs-578T, > 100 µM (inactive). The GI50 in the assay on IGROV-1 was > 100 µM (inactive); in the assay with K562 it was 3.72 µM (inactive); in the assay on MCF7, 30.3 µM (inactive); in the assay with Malme-3M it was > 100 µM (inactive); with NCI-H226 it was > 100 µM (inactive); with NCI-H460, 67.1 µM (inactive). For the same compound, the GI50 in the assay with NCI/ADR-RES was > 100 µM (inactive); in the assay with OVCAR-8 it was > 100 µM (inactive); with PC-3, 16.2 µM (inactive); in the assay with SF-268 it was 55.7 µM (inactive); in the assay with SK-OV-3, > 100 µM (inactive); with SNB-19, > 100 µM (inactive). The GI50 was 33.3 µM (inactive) with SR and > 100 µM (inactive) in the assay with U-251.
For `Cc1ccc(/N=C2N=C(Cl)/C(=C\c3ccco3)N\2)cc1`, the GI50 in the assay on A498, in the assay with A549, with ACHN, in the assay with DU-145, with HL-60 and in the assay on Hs-578T was > 100 µM (inactive) in each case. The GI50 in the assay with IGROV-1, in the assay on K562, in the assay with MCF7, in the assay on Malme-3M, with NCI-H226 and in the assay on NCI-H460 was > 100 µM (inactive) throughout. The GI50 in the assay on NCI/ADR-RES, in the assay on OVCAR-8, in the assay on PC-3, in the assay with SF-268, in the assay on SK-OV-3 and in the assay on SNB-19 was > 100 µM (inactive) throughout. In addition, the results for the GI50 in the assay on SR and with U-251 were 96.8 µM (inactive) and > 100 µM (inactive), respectively.
As to `NC(=S)N/N=C\c1nccc2ccccc12`, the GI50 in the assay with A498 was 0.21 µM (active); in the assay on A549 it was 0.413 µM (active); in the assay with ACHN, 0.0501 µM (active); in the assay on DU-145, 0.404 µM (active); in the assay on HL-60, 0.327 µM (active); in the assay on Hs-578T, 10.7 µM (inactive). For the same compound, the 50% growth inhibitory concentration (GI50) in the assay with IGROV-1 is 0.42 µM (active); with K562, 0.731 µM (active); with MCF7, 0.253 µM (active); in the assay on Malme-3M, 1.73 µM (inactive); with NCI-H226, 0.184 µM (active); in the assay with NCI-H460, 0.267 µM (active). Besides, the GI50 is 0.285 µM (active) in the assay on NCI/ADR-RES; 0.209 µM (active) in the assay with OVCAR-8; 0.685 µM (active) in the assay with PC-3; 0.216 µM (active) with SF-268; 0.2 µM (active) in the assay on SK-OV-3; 0.531 µM (active) in the assay on SNB-19. For the same compound, the concentration for 50% growth inhibition (GI50) with SR is 0.126 µM (active); in the assay with U-251 it was 0.281 µM (active).
In the case of `CC(NNC(=O)c1cc[n+]([BH2-]C#N)cc1)C(F)(F)F` (stereo not given), the GI50 with A498, in the assay on A549, in the assay with ACHN, with DU-145, in the assay on HL-60 and with Hs-578T was > 100 µM (inactive) in each case. Further, the GI50 in the assay with IGROV-1, in the assay on K562, with MCF7, in the assay on Malme-3M, in the assay with NCI-H226 and with NCI-H460 was > 100 µM (inactive) each time. The GI50 with NCI/ADR-RES, in the assay on OVCAR-8, with PC-3, with SF-268, in the assay with SK-OV-3 and in the assay on SNB-19 was > 100 µM (inactive) in each case. Moreover, the GI50 in the assay on SR and in the assay on U-251 was > 100 µM (inactive) in each case.
